Test results taken from US4015974A, “Amido phosphorothiolates” (priority 1972, dated 1977).

Tests used:
Type in all cases: in vivo
[1] = system: barnyard grass (Echinochloa crus-galli); test: Pre-emergence application, herbicidal effect on barnyard grass (Table 1); design: key: 0: not damaged; 5: completely killed; conditions: 20 days after application, score 0-5
Source text: (§1) Seeds of barnyard grass (Echinochloa crus-galli) and large crabgrass (Digitaria sanguinalis) as representatives of grassy weeds and those of radish, redroot pigweed (Amaranthus retroflexus), common purslane (Portulaca oleracea) and common lambsquarter (Chenopodium album) as representatives of broad-leaved weeds were individually sowed in flower pots of about 10 cm. in diameter. After covering the seeds with soil, test compounds as shown in Table 1 were individually applied to the soil treatment. Thereafter the plants were grown in a green house and 20 days after application the herbicidal effects of the compounds were observed, the results of which are as shown in Table 1.
(§2) Herbicidal effects were evaluated by the numerals ranging from 0 (not damaged) to 5 (completely killed). All the test compounds were used in the form of wettable powder and diluted with water before application.

[2] = system: radish; test: Pre-emergence application, herbicidal effect on radish (Table 1); design: key: 0: not damaged; 5: completely killed; conditions: 20 days after application, score 0-5
Source text: as §1, §2

[3] = system: barnyard grass (Echinochloa crus-galli); test: Water application, herbicidal effect on barnyard grass (Table 2); design: key: 0: not damaged; 5: completely killed; conditions: 25 days, score 0-5
Source text: (§3) Wagner pots of 14 cm. in diameter, which had been packed with 1.5 kg. of paddy field soil, were brought into the state of paddy fields. To the pots were transplanted rice seedlings at the 3-leave stage. Further, seeds of barnyard grass (Echinochloa crus-galli) were sowed in the pots and required amounts of test compounds were applied to the soil under water lodged condition. 25 days after application, the degrees of herbicidal activity and phytotoxity were investigated on above-mentioned plants which had been transplanted and sowed, and on broad-leaved weeds, e.g., monochoria (Monochoria viaginalis Presl.), false pimpernel (Linderna pyxidaria) and toothcup (Rotala indica Koehue), which had been spontaneously germinated. The test compounds were used in the form of wettable powder. The herbicidal effects and the phytotoxity were evaluated as follows by the numerals ranging from 0 to 5.

[4] = system: large crabgrass (Digitaria sanguinalis); test: Pre-emergence application, herbicidal effect on large crabgrass (Table 1); design: key: 0: not damaged; 5: completely killed; conditions: 20 days after application, score 0-5
Source text: as §1, §2

[5] = system: redroot pigweed (Amaranthus retroflexus); test: Pre-emergence application, herbicidal effect on redroot pigweed (Table 1); design: key: 0: not damaged; 5: completely killed; conditions: 20 days after application, score 0-5
Source text: as §1, §2

[6] = system: common purslane (Portulaca oleracea); test: Pre-emergence application, herbicidal effect on common purslane (Table 1); design: key: 0: not damaged; 5: completely killed; conditions: 20 days after application, score 0-5
Source text: as §1, §2

[7] = system: rice; test: Water application, phytotoxicity on rice (Table 2); design: key: 0: no effect; 1: very slightly affected; 2: slightly affected; 3: moderately affected; 4: considerably affected; 5: completely killed; conditions: 25 days, score 0-5
Source text: as §3

[8] = system: common lambsquarter (Chenopodium album); test: Pre-emergence application, herbicidal effect on common lambsquarter (Table 1); design: key: 0: not damaged; 5: completely killed; conditions: 20 days after application, score 0-5
Source text: as §1, §2

[9] = system: broad-leaved weeds, e.g., monochoria, false pimpernel and toothcup; test: Water application, herbicidal effect on broad-leaved weeds (Table 2); design: key: 0: not damaged; 5: completely killed; conditions: 25 days, score 0-5
Source text: as §3

Row | SMILES | Herbicidal effect, barnyard grass ([1]; 10 g./a.) | Herbicidal effect, barnyard grass ([1]; 20 g./a.) | Herbicidal effect, barnyard grass ([1]; 40 g./a.) | Herbicidal effect, radish ([2]; 10 g./a.) | Herbicidal effect, radish ([2]; 20 g./a.) | Herbicidal effect, radish ([2]; 40 g./a.) | Herbicidal effects, barnyard grass ([3]; 10 g/a) | Herbicidal effects, barnyard grass ([3]; 20 g/a) | Herbicidal effects, barnyard grass ([3]; 40 g/a) | Herbicidal effect, large crabgrass ([4]; 10 g./a.) | Herbicidal effect, large crabgrass ([4]; 20 g./a.) | Herbicidal effect, large crabgrass ([4]; 40 g./a.) | Herbicidal effect, redroot pigweed ([5]; 10 g./a.) | Herbicidal effect, redroot pigweed ([5]; 20 g./a.) | Herbicidal effect, redroot pigweed ([5]; 40 g./a.) | Herbicidal effect, common purslane ([6]; 10 g./a.) | Phytotoxicity on rice ([7]; 20 g/a) | Phytotoxicity on rice ([7]; 40 g/a) | Herbicidal effects, broad-leaved weeds ([9]; 20 g/a) | Herbicidal effects, broad-leaved weeds ([9]; 40 g/a) | further results
1 | CCCCCSP(=O)(OCCCC)SCC(=O)N1CCCCC1CC (stereo not drawn) [Compound 98] | 5 | 5 | 5 | 0 | 0 | 0 | 5 | 5 | 5 | 5 | 5 | 5 | 4 | 5 | 5 | 4 | 0 | 0 | 5 | 5 | Herbicidal effect, common purslane ([6]; 20 g./a.): 5; Herbicidal effect, common purslane ([6]; 40 g./a.): 5; Phytotoxicity on rice ([7]; 10 g/a): 0; Herbicidal effect, common lambsquarter ([8]; 10 g./a.): 5; Herbicidal effect, common lambsquarter ([8]; 20 g./a.): 5; Herbicidal effect, common lambsquarter ([8]; 40 g./a.): 5; Herbicidal effects, broad-leaved weeds ([9]; 10 g/a): 5
2 | C=C(Cl)CSP(=O)(OCC)SCC(=O)N1CCCCC1CC (stereo not drawn) [Compound 82] | 5 | 5 | 5 | 0 | 0 | 1 | 5 | 5 | 5 | 5 | 5 | 5 | 4 | 4 | 5 | 3 | 0 | 2 | 5 | 5 | Herbicidal effect, common purslane ([6]; 20 g./a.): 4; Herbicidal effect, common purslane ([6]; 40 g./a.): 5; Phytotoxicity on rice ([7]; 10 g/a): 0; Herbicidal effect, common lambsquarter ([8]; 10 g./a.): 4; Herbicidal effect, common lambsquarter ([8]; 20 g./a.): 4; Herbicidal effect, common lambsquarter ([8]; 40 g./a.): 5; Herbicidal effects, broad-leaved weeds ([9]; 10 g/a): 5
3 | CCOP(=O)(SCC)SCC(=O)N1CCCCC1CC (stereo not drawn) [Compound 75] | 5 | 5 | 5 | 0 | 1 | 2 | 5 | 5 | 5 | 5 | 5 | 5 | 5 | 5 | 5 | 5 | 0 | 1 | 5 | 5 | Herbicidal effect, common purslane ([6]; 20 g./a.): 5; Herbicidal effect, common purslane ([6]; 40 g./a.): 5; Phytotoxicity on rice ([7]; 10 g/a): 0; Herbicidal effect, common lambsquarter ([8]; 10 g./a.): 5; Herbicidal effect, common lambsquarter ([8]; 20 g./a.): 5; Herbicidal effect, common lambsquarter ([8]; 40 g./a.): 5; Herbicidal effects, broad-leaved weeds ([9]; 10 g/a): 5
4 | CCCCOP(=O)(SCC(=O)N1CCCCC1C)SCc1ccc(C)cc1 (stereo not drawn) [Compound 56] | 5 | 5 | 5 | 0 | 0 | 0 | 5 | 5 | 5 | 4 | 5 | 5 | 3 | 3 | 5 | 3 | 0 | 0 | 5 | 5 | Herbicidal effect, common purslane ([6]; 20 g./a.): 3; Herbicidal effect, common purslane ([6]; 40 g./a.): 4; Phytotoxicity on rice ([7]; 10 g/a): 0; Herbicidal effect, common lambsquarter ([8]; 10 g./a.): 3; Herbicidal effect, common lambsquarter ([8]; 20 g./a.): 4; Herbicidal effect, common lambsquarter ([8]; 40 g./a.): 5; Herbicidal effects, broad-leaved weeds ([9]; 10 g/a): 5
5 | C=CCSP(=O)(OCCC)SCC(=O)N1CCCCC1C (stereo not drawn) [Compound 70] | 5 | 5 | 5 | 0 | 0 | 0 | 5 | 5 | 5 | 5 | 5 | 5 | 5 | 5 | 5 | 5 | 0 | 2 | 5 | 5 | Herbicidal effect, common purslane ([6]; 20 g./a.): 5; Herbicidal effect, common purslane ([6]; 40 g./a.): 5; Phytotoxicity on rice ([7]; 10 g/a): 0; Herbicidal effect, common lambsquarter ([8]; 10 g./a.): 5; Herbicidal effect, common lambsquarter ([8]; 20 g./a.): 5; Herbicidal effect, common lambsquarter ([8]; 40 g./a.): 5; Herbicidal effects, broad-leaved weeds ([9]; 10 g/a): 5
6 | CCCOP(=O)(SCCC)SCC(=O)N1CCCCC1C (stereo not drawn) [Compound 16, O,S-di-n-propyl-S-(2-methylpiperidinocarbamoylmethyl)phosphorodithiolate] | 4 | 4 | 5 | 0 | 0 | 0 | 5 | 5 | 5 | 5 | 5 | 5 | 4 | 4 | 4 | 4 | 0 | 0 | 5 | 5 | Herbicidal effect, common purslane ([6]; 20 g./a.): 4; Herbicidal effect, common purslane ([6]; 40 g./a.): 4; Phytotoxicity on rice ([7]; 10 g/a): 0; Herbicidal effect, common lambsquarter ([8]; 10 g./a.): 4; Herbicidal effect, common lambsquarter ([8]; 20 g./a.): 4; Herbicidal effect, common lambsquarter ([8]; 40 g./a.): 5; Herbicidal effects, broad-leaved weeds ([9]; 10 g/a): 5
7 | O=[N+]([O-])c1ccc(Oc2ccc(Cl)cc2Cl)cc1 [NIP, reference compound] | – | – | – | – | – | – | – | 5 | 5 | – | – | – | – | – | – | – | 2 | 4 | 5 | 5 | –
